{"source": "patent US20230233483A1", "about": "“COMPOUND AND METHOD FOR THE TREATMENT OF CORONAVIRUSES” (Apteeus, priority 2020, published 2023)", "tested_on": "SARS-CoV-2 of lineage B1 containing the D614G mutation; SARS-CoV-2 of lineage B1.1.7", "type": "cell-based"}
{"compound": "CC(C)(C)CC(C)(C)c1ccc(O)c(Cc2ccc(Cl)cc2Cl)c1", "note": "[clofoctol, 2-(2,4-Dichlorobenzyl)-4-(1,1,3,3-tetramethylbutyl)phenol]", "values": [{"measurement": "Genomic replication of variants of SARS-CoV-2 (RT-qPCR)", "value": "inhibits the genomic replication of variants of SARS-CoV-2"}]}
